Test results reported in patent publication US20200207872A1, “METHODS FOR TREATING INFLAMMATION AND RELATED DISEASES AND DISORDERS BY INHIBITING ALPHA PROTEIN KINASE 1” (Shanghai Yao Yuan Biotechnology Co., Ltd., priority 2017, published 2020).

What was measured:
ALPK1 = ALPK1 (Homo sapiens, UniProt Q96QP1); assay: Screening of small molecule libraries for inhibitory activity against ALPK1 (binding, kinase and cell-based cytokine secretion assays); assay type: biochemical; settings: performance in the binding and kinase assays and in at least two cell-based assays
Chain of ALPK1 (Q96QP1 whole entry): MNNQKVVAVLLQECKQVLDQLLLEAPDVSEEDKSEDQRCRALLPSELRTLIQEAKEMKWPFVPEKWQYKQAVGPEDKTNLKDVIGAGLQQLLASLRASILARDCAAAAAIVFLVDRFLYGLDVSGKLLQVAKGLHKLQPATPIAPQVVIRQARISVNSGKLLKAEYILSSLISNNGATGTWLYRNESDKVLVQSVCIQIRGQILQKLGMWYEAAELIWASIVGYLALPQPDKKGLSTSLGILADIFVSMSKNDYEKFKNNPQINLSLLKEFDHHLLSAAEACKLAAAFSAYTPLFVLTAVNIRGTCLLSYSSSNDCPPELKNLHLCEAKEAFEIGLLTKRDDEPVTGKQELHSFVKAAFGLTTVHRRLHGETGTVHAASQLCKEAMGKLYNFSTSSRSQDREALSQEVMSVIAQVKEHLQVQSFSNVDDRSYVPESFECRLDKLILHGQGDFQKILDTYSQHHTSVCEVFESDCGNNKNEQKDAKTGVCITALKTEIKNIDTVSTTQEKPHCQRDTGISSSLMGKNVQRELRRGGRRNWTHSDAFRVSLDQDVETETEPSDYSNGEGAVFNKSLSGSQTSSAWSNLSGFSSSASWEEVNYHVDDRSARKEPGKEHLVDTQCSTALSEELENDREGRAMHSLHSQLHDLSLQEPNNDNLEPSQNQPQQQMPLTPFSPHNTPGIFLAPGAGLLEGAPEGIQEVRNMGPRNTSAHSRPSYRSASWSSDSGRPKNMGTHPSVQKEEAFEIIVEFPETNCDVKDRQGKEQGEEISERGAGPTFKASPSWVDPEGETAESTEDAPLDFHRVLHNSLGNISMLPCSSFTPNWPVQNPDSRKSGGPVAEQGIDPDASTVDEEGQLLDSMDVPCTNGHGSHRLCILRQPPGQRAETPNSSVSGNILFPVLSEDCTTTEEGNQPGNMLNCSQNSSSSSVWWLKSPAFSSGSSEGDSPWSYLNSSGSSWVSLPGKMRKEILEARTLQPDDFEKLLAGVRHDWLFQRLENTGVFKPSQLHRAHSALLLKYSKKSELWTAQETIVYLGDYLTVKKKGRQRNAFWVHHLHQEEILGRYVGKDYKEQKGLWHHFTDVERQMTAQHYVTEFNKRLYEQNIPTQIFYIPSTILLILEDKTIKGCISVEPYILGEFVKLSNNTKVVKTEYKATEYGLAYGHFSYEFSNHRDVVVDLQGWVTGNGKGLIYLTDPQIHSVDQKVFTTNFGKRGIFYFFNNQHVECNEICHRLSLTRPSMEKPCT
Source text: An ALPK1 inhibitor was identified by screening libraries of small molecules for inhibitory activity against ALPK1. Various assays were used to screen the libraries including binding assays, kinases assays, and cell-based assays for cytokine secretion.

[1] = test system: DSS-induced colitis model; assay: DSS-induced colitis model, body weight; assay type: in vivo; settings: female wild type FVC mice, 3% DSS day 0 to day 5, then 1 mg/kg IP daily in DMSO vs DMSO alone
Experimental: Mice were treated with 3% DSS from day 0 to day 5 then changed to drinking water and injected IP with either MI6C (1 mg/kg) dissolved in DMSO (n=6) or DMSO alone (n=5) daily.
The ability of MI6 to ameliorate inflammation in the DSS-induced colitis model was evaluated as follows. 8 weeks old female wild type FVC mice were treated with 3% DSS (Sodium salt, MW 40K-50K, from Affymetrix) from day 0 to day 5. The mice were then changed to drinking water. Mice were injected intraperitoneally (IP) with either MI6 (1 mg/kg) dissolved in DMSO (n=6) or DMSO alone (n=5) daily. Animals were weighed daily.

inhibitory activity against ALPK1 (ALPK1): identified as an ALPK1 inhibitor
Structure (SMILES): CCCCCCCCCCCCCCCC[n+]1ccn(Cc2ccccc2)c1C [MI6, 1-benzyl-3-hexadecyl-2-methyl-1H-imidazol-3-ium]
weight gain (change in weight relative to day 0) / recovery [1]: improved weight gain
weight gain (change in weight relative to day 0) / recovery ([1]; listed as MI6C): improves recovery
